# According to patent US20240343733A1, “COMPOUNDS FOR TARGETING DEGRADATION OF IRAK4 PROTEINS” (BIOGEN MA INC., priority 2021, published 2024):
# Like-named read-outs stand apart in the source and are kept apart here.
# Tests used:
# IKZF1 = biological target: T1, IKZF1 (Homo sapiens, UniProt Q13422); test: IKZF1 Degradation Assay, HiBiT Method; type: cell-based; conditions: NCIH929 cells expressing HiBiT-tagged IKZF1, 6 hours, top concentration 10 μM
# T1 construct: endogenously expressing IKZF1 with HiBiT fusion tag via CRISPR
# How it was run: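 NCIH929 cells expressing HiBiT-tagged IKZF1, 15000 cells/well in RPMI with 10% FBS and 0.05 mM 2-mercaptoethanol, exposed to compound 6 h at 37 °C. Remaining IKZF1 quantified by lytic HiBiT luminescence, normalised to untreated-cell and medium-only controls.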
# [1] = Pharmacokinetics (PK) in Male Beagle Dogs; type: in vivo; conditions: dog, plasma; for Vd: read-out: Vdss
# Method: Assay 3. Pharmacokinetics (PK) in Male Beagle Dogs
# The pharmacokinetic (PK) profile in plasma of two compounds of the present invention was determined in male beagle dogs following single dose IV (5 mg/kg) and PO (10 mg/kg) administration. This study was performed under non-GLP conditions, and unless otherwise stated, all analytical reagents were standard laboratory reagent grade.
# Male beagle dogs were housed individually and maintained in a controlled environment. Pedigree® standard dog chow (Pedigree India Private Ltd, Telangana, India) was provided once daily. Drinking water was available ad libitum. Environmental controls for the animal room were set to maintain a temperature range of 22-25° C., relative humidity range of 40-70%, and a 12-hour light/12-hour dark cycle. Normal healthy animals weighing 10±1 kg, certified by the attending veterinarian, were selected and acclimatized for a minimum of three days prior to initiation of study. Dogs were identified by chip number inserted at the neck region. The study protocol was reviewed and approved by the Institutional Animal Ethics Committee (IAEC).
# 2-[4-[[4-[1-(2,6-dioxo-3-piperidyl)-3-methyl-2-oxo-benzimidazol-5-yl]-1-piperidyl]methyl]cyclohexyl]-7-isopropoxy-N-pyrazolo[1,5-a]pyrimidin-3-yl-imidazo[1,2-a]pyridine-6-carboxamide, as described in Example 48 (“Compound 48”), and 2-((1R,4S)-4-((4-(1-(2,6-dioxopiperidin-3-yl)-3-methyl-2-oxo-2,3-dihydro-1H-benzo[d]imidazol-5-yl)piperidin-1-yl)methyl)cyclohexyl)-N-(1-((1S,2R)-2-fluorocyclopropyl)-2-oxo-1,2-dihydropyridin-3-yl)-7-isopropoxyimidazo[1,2-a]pyridine-6-carboxamide, as described in Example 169 (“Compound 169”), were each formulated by dissolving the compound in polyethylene glycol (PEG400) (10%) with stirring, followed by the slow addition of 11.11% 2-Hydroxypropyl-beta-cyclodextrin (HPβCD) (90%) in water. Vehicle dose was PEG400 (10%) and 11.11% HP-β-CD (90%) in water. Formulations and vehicle were freshly prepared on the day of dosing and stored at room temperature until used.
# All animals were weighed prior to drug administration. The animals were divided into intravenous (IV) group and per os (PO) group for each compound tested, with 3 animals in each group. The vehicle dosing group also included IV and PO groups, making a total of 6 groups of 3 animals each, for 18 animals total. The animals were restrained physically in sternal recumbently, on an examination table. The IV dose was administered by intravenous bolus injection into the cephalic vein and the PO dose was administered via gastric tube. The dosing volume was 1 mL/kg for IV groups and 2 mL/kg for PO groups. The dosing concentration was 5 mg/mL for both IV and PO groups respectively. The animals were fasted overnight and food was provided 4 hours post dose. […] Apart from this, animals were observed twice daily for any clinical signs, if any, and noted accordingly.
# From the vehicle treatment group, whole blood was collected for peripheral blood mononuclear cells (PBMC) isolation at Pre-dose, and at 2, 8, 24, 48, 72 and 96 hour timepoints. For both tested compounds IV and PO dosing groups, whole blood was collected for plasma isolation at Pre-dose, and 0.033, 0.083, 0.167, 0.33, 1, 2, 4, 6, 8, 24, 48, 72 and 96 hour timepoints. The anti-coagulant solution used was 6% (v/v) Sodium citrate (200 mM, pH 4.79) (pre-chilled tubes). The whole blood from both IV and PO compound treatment dosing groups collected at Pre-dose, 2, 8, 24, 48, 72 and 96 hours were subjected to PBMC isolation.
# For sample preparation, approximately 1-2 mL of whole blood was drawn from the peripheral vein and collected in labeled tubes containing lithium heparin, then stored on ice. The blood samples were centrifuged within 15 minutes to separate plasma at 1540 g at 4° C. for 10 minutes. The plasma was separated and transferred to pre-labeled microcentrifuge tubes and immediately frozen at −80±10° C. until bioanalysis. […]
# T1 sequence (Q96SW2 whole entry partner, the tested form may be a part): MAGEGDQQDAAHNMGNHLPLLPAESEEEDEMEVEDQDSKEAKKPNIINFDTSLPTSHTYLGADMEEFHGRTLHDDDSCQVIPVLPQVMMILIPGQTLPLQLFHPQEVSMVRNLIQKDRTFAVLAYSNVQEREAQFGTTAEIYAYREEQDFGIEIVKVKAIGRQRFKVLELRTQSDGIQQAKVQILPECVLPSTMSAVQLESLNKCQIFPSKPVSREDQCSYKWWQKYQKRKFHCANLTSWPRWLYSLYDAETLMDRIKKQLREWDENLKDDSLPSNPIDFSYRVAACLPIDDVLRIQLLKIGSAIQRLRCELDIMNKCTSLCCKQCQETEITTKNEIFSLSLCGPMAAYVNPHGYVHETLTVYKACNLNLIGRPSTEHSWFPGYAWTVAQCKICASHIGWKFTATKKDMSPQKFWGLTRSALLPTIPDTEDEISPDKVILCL
# T1 sequence (Q16531 whole entry partner, the tested form may be a part): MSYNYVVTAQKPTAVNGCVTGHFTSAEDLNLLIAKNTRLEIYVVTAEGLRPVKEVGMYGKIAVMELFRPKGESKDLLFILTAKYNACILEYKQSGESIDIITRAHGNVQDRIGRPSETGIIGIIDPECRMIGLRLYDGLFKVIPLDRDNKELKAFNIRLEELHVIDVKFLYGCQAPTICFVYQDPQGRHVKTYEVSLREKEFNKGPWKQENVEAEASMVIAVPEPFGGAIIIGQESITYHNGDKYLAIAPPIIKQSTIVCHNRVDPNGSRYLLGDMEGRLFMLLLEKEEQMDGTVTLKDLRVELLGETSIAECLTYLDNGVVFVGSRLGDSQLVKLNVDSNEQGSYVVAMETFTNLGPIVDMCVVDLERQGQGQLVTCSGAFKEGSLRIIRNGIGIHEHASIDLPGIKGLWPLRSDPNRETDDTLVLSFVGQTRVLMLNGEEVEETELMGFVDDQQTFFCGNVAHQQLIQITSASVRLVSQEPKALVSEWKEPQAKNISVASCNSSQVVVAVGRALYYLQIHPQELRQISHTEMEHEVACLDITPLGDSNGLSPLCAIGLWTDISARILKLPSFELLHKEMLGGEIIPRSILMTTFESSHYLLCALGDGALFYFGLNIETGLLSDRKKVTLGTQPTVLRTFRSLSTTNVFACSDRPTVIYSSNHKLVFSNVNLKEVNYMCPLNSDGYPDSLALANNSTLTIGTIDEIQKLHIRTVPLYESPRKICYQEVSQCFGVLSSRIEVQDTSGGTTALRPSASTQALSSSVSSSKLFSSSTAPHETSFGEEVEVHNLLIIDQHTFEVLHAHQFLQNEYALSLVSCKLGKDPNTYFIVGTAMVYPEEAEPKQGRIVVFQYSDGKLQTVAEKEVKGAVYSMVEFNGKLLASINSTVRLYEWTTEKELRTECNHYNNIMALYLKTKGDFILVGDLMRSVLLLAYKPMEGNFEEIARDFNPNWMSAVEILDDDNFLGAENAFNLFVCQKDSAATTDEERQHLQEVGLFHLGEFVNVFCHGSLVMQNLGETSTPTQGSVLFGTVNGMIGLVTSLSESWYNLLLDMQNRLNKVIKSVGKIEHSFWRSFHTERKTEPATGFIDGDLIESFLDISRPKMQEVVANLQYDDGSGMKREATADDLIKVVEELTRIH
# T1 sequence (Q13422 whole entry, the tested form may be a part): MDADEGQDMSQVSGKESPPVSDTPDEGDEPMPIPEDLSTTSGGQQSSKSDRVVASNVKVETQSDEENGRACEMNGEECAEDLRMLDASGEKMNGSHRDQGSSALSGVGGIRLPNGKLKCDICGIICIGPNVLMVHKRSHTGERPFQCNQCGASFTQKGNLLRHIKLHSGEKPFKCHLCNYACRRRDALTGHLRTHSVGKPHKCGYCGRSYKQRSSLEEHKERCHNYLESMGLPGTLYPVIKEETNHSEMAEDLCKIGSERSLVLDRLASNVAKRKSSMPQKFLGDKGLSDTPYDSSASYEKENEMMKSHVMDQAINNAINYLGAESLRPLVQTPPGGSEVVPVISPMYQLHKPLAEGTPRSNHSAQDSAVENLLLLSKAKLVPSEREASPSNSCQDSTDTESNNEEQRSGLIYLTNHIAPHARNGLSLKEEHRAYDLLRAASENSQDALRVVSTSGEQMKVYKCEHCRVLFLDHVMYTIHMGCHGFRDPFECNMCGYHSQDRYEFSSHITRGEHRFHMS
DC50 (IKZF1) [µM],"AUC(0-t) ([1]; 5 mg/kg IV, mean) [ng·h/mL]","C0 ([1]; 5 mg/kg IV, mean) [ng/mL]","clearance ([1]; 5 mg/kg IV, mean) [mL/min/kg]","half-life ([1]; 5 mg/kg IV, mean) [h]","Vd ([1]; 5 mg/kg IV, mean) [L/kg]","AUC(0-t) ([1]; 10 mg/kg PO, mean) [ng·h/mL]","Cmax ([1]; 10 mg/kg PO, mean) [ng/mL]","bioavailability ([1]; 10 mg/kg PO, mean) [%]","AUC(0-t) ([1]; 5 mg/kg IV, mean (Table 5)) [ng·h/mL]","C0 ([1]; 5 mg/kg IV, mean (Table 5)) [ng/mL]","clearance ([1]; 5 mg/kg IV, mean (Table 5)) [mL/min/kg]","half-life ([1]; 5 mg/kg IV, mean (Table 5)) [h]","Vd ([1]; 5 mg/kg IV, mean (Table 5)) [L/kg]","AUC(0-t) ([1]; 10 mg/kg PO, mean (Table 6)) [ng·h/mL]","Cmax ([1]; 10 mg/kg PO, mean (Table 6)) [ng/mL]","bioavailability ([1]; 10 mg/kg PO, mean (Table 6)) [%]",SMILES
> 10,1720,4180,46.3,34.5,58.5,242,33.9,7.02,–,–,–,–,–,–,–,–,"CC(C)Oc1cc2nc([C@H]3CC[C@H](CN4CCC(c5ccc6c(c5)n(C)c(=O)n6C5CCC(=O)NC5=O)CC4)CC3)cn2cc1C(=O)Nc1cnn2cccnc12 (some centres unmarked) [Compound 48, 2-[4-[[4-[1-(2,6-dioxo-3-piperidyl)-3-methyl-2-oxo-benzimidazol-5-yl]-1-piperidyl]methyl]cyclohexyl]-7-isopropoxy-N-pyrazolo[1,5-a]pyrimidin-3-yl-imidazo[1,2-a]pyridine-6-carboxamide]"
–,–,–,–,–,–,–,–,–,2210,3160,35,42.5,58,472,32.2,10.7,"CC(C)Oc1cc2nc([C@H]3CC[C@H](CN4CCC(c5ccc6c(c5)n(C)c(=O)n6C5CCC(=O)NC5=O)CC4)CC3)cn2cc1C(=O)Nc1cccn([C@H]2C[C@H]2F)c1=O (stereo partly drawn) [Compound 169, 2-((1R,4S)-4-((4-(1-(2,6-dioxopiperidin-3-yl)-3-methyl-2-oxo-2,3-dihydro-1H-benzo[d]imidazol-5-yl)piperidin-1-yl)methyl)cyclohexyl)-N-(1-((1S,2R)-2-fluorocyclopropyl)-2-oxo-1,2-dihydropyridin-3-yl)-7-isopropoxyimidazo[1,2-a]pyridine-6-carboxamide]"
